In US8735391B2, “Synthesis of functionalized octahydro-isoquinolin-1-one-8-carboxamides, octahydro-isoquinolin-1-one-8-carboxylic esters and analogs, and therapeutic methods” (University of Kansas, priority 2008, dated 2014):

The compounds below were run against DOR (Homo sapiens, UniProt P41143) (assay: Opioid secondary binding, DOR (Table 4)). Settings: Opioid secondary binding activity for Formula 10 analogs.
Chain of DOR (P41143 whole entry): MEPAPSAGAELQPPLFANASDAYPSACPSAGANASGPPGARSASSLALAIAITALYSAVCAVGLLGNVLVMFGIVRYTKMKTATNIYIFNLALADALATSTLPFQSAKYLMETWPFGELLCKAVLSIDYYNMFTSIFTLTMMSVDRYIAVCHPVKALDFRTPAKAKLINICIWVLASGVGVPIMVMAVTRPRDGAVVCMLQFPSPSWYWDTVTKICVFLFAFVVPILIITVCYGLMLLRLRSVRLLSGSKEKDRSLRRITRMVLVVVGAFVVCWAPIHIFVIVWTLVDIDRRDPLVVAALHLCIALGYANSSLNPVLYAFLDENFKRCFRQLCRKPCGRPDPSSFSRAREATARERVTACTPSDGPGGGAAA
`CC(c1ccccc1)N1CCC2C=CCC(C(=O)NC3CCCCC3)C2C1=O` (mixture of isomers) [compound 12163] showed a Ki of 1.16 µM. For `O=C(NCc1cccc(Br)c1)[C@@H]1CC=C[C@@H]2CCN(c3ccccc3)C(=O)[C@@H]21` (racemic) [compound 11949], the Ki was 0.302 µM. For `Cc1ccc(CNC(=O)[C@@H]2CC=C[C@@H]3CCN(c4ccccc4)C(=O)[C@@H]32)cc1` (racemic) [compound 11950], the Ki was 0.297 µM. `Cc1cc(C)c(NC(=O)[C@@H]2CC=C[C@@H]3CCN(c4ccccc4)C(=O)[C@@H]32)c(C)c1` (racemic) [compound 11951] gave a Ki of 4.3 µM. `Cc1ccc(CNC(=O)[C@@H]2CC=C[C@@H]3CCN(Cc4ccccc4)C(=O)[C@@H]32)cc1` (racemic) [compound 11956] gave a Ki of 2.36 µM. For `Cc1cc(C)c(NC(=O)[C@@H]2CC=C[C@@H]3CCN(Cc4ccccc4)C(=O)[C@@H]32)c(C)c1` (racemic) [compound 11957], the Ki was 3.22 µM. `O=C([C@@H]1CC=C[C@@H]2CCN(C3CCCCC3)C(=O)[C@@H]21)N1CCCC1` (racemic) [compound 12084] gave a Ki of 6.29 µM. For `O=C(NCC1CC1)[C@@H]1CC=C[C@@H]2CCN(C3CCCCC3)C(=O)[C@@H]21` (racemic) [compound 12085], the Ki was 0.475 µM. `CN(C)C(=O)[C@@H]1CC=C[C@@H]2CCN(C3CCCCC3)C(=O)[C@@H]21` (racemic) [compound 12086] was tested, and the Ki was > 10 µM. `O=C(Nc1ccc(Cl)cc1)[C@@H]1CC=C[C@@H]2CCN(C3CCCCC3)C(=O)[C@@H]21` (racemic) [compound 12087] gave a Ki of 0.582 µM. In the case of `O=C(Nc1cc(F)c(F)c(F)c1)[C@@H]1CC=C[C@@H]2CCN(C3CCCCC3)C(=O)[C@@H]21` (racemic) [compound 12088], the Ki is reported as 2.79 µM. Work on `O=C(NCC1CC1)[C@@H]1CC=C[C@@H]2CCN(CC3CC3)C(=O)[C@@H]21` (racemic) [compound 12090] yielded a Ki of 5.65 µM. Work on `O=C(Nc1ccc(Cl)cc1)[C@@H]1CC=C[C@@H]2CCN(CC3CC3)C(=O)[C@@H]21` (racemic) [compound 12092] yielded a Ki of 3.23 µM. In the case of `O=C(Nc1cc(F)c(F)c(F)c1)[C@@H]1CC=C[C@@H]2CCN(CC3CC3)C(=O)[C@@H]21` (racemic) [compound 12093], the Ki is reported as 4.37 µM. With `O=C([C@@H]1CC=C[C@@H]2CCN(c3ccccc3)C(=O)[C@@H]21)N1CCCC1` (racemic) [compound 12094] the Ki was > 10 µM. `O=C(NCC1CC1)[C@@H]1CC=C[C@@H]2CCN(c3ccccc3)C(=O)[C@@H]21` (racemic) [compound 12095] was tested, and the Ki was 1.23 µM. In the case of `CN(C)C(=O)[C@@H]1CC=C[C@@H]2CCN(c3ccccc3)C(=O)[C@@H]21` (racemic) [compound 12096], the Ki is reported as > 10 µM. In the case of `O=C(Nc1ccc(Cl)cc1)[C@@H]1CC=C[C@@H]2CCN(c3ccccc3)C(=O)[C@@H]21` (racemic) [compound 12097], the Ki is reported as 0.168 µM. `O=C(Nc1cc(F)c(F)c(F)c1)[C@@H]1CC=C[C@@H]2CCN(c3ccccc3)C(=O)[C@@H]21` (racemic) [compound 12098] was tested, and the Ki was 0.289 µM. `O=C1[C@H]2[C@H](C=CC[C@H]2C(=O)N2CCCC2)CCN1Cc1ccccc1` (racemic) [compound 12099] gave a Ki of 6.65 µM. In the case of `O=C(NCC1CC1)[C@@H]1CC=C[C@@H]2CCN(Cc3ccccc3)C(=O)[C@@H]21` (racemic) [compound 12100], the Ki is reported as 0.539 µM. `CN(C)C(=O)[C@@H]1CC=C[C@@H]2CCN(Cc3ccccc3)C(=O)[C@@H]21` (racemic) [compound 12101] was tested, and the Ki was > 10 µM. `O=C(Nc1cc(F)c(F)c(F)c1)[C@@H]1CC=C[C@@H]2CCN(Cc3ccccc3)C(=O)[C@@H]21` (racemic) [compound 12103] was tested, and the Ki was 0.18 µM. In the case of `C=CCNC(=O)[C@@H]1CC=C[C@@H]2CCN(CC3CCCCC3)C(=O)[C@@H]21` (racemic) [compound 12110], the Ki is reported as 1.43 µM. Compound `CN(C(=O)[C@@H]1CC=C[C@@H]2CCN(CC3CCCCC3)C(=O)[C@@H]21)c1ccccc1` (racemic) [compound 12113] has a Ki of 2.83 µM. For `CCOC(=O)C1CCCCN1C(=O)[C@@H]1CC=C[C@@H]2CCN(CC3CCCCC3)C(=O)[C@@H]21` (mixture of isomers) [compound 12115], the Ki was 9.15 µM. `NC(=O)c1ccccc1NC(=O)[C@@H]1CC=C[C@@H]2CCN(c3ccccc3)C(=O)[C@@H]21` (racemic) [compound 12117] was tested, and the Ki was 0.648 µM. For `CN(C(=O)[C@@H]1CC=C[C@@H]2CCN(c3ccccc3)C(=O)[C@@H]21)c1ccccc1` (racemic) [compound 12119], the Ki was 4.01 µM. Compound `C=CCNC(=O)[C@@H]1CC=C[C@@H]2CCN(Cc3ccccc3)C(=O)[C@@H]21` (racemic) [compound 12122] has a Ki of 3.43 µM. With `NC(=O)c1ccccc1NC(=O)[C@@H]1CC=C[C@@H]2CCN(Cc3ccccc3)C(=O)[C@@H]21` (racemic) [compound 12123] the Ki was 5.93 µM. With `CCOC(=O)c1ccc(NC(=O)[C@@H]2CC=C[C@@H]3CCN(Cc4ccccc4)C(=O)[C@@H]32)cc1` (racemic) [compound 12124] the Ki was 7.82 µM. In the case of `O=C(Nc1ccccc1)[C@@H]1CC=C[C@@H]2CCN(Cc3ccccc3)C(=O)[C@@H]21` (racemic) [compound 12125], the Ki is reported as > 10 µM. `COc1ccc(CNC(=O)[C@@H]2CC=C[C@@H]3CCN(Cc4ccccc4)C(=O)[C@@H]32)cc1OC` (racemic) [compound 12126] was tested, and the Ki was > 10 µM. `CCOC(=O)C1CCCCN1C(=O)[C@@H]1CC=C[C@@H]2CCN(Cc3ccccc3)C(=O)[C@@H]21` (mixture of isomers) [compound 12127] was tested, and the Ki was > 10 µM. `CC(C)N(C(=O)[C@@H]1CC=C[C@@H]2CCN(CC3CCCCC3)C(=O)[C@@H]21)C1CCCCC1` (racemic) [compound 12134] showed a Ki of 1.63 µM. `O=C(NCc1ccc(Cl)c(Cl)c1)[C@@H]1CC=C[C@@H]2CCN(CC3CCCCC3)C(=O)[C@@H]21` (racemic) [compound 12136] was tested, and the Ki was 1.3 µM. `O=C(Nc1cnccn1)[C@@H]1CC=C[C@@H]2CCN(CC3CCCCC3)C(=O)[C@@H]21` (racemic) [compound 12138] gave a Ki of 1.65 µM. `CC(C)N(C(=O)[C@@H]1CC=C[C@@H]2CCN(c3ccccc3)C(=O)[C@@H]21)C1CCCCC1` (racemic) [compound 12140] gave a Ki of 0.416 µM. `O=C(NCc1ccc(Cl)c(Cl)c1)[C@@H]1CC=C[C@@H]2CCN(c3ccccc3)C(=O)[C@@H]21` (racemic) [compound 12142] was tested, and the Ki was 0.103 µM. In the case of `O=C(NC1CCCCC1)[C@@H]1CC=C[C@@H]2CCN(CC3CC3)C(=O)[C@@H]21` (racemic) [compound 12152], the Ki is reported as 2.52 µM. In the case of `O=C(Nc1ccccc1)[C@@H]1CC=C[C@@H]2CCN(CC3CC3)C(=O)[C@@H]21` (racemic) [compound 12153], the Ki is reported as 6.62 µM. `O=C(Nc1cccc(Cl)c1)[C@@H]1CC=C[C@@H]2CCN(CC3CC3)C(=O)[C@@H]21` (racemic) [compound 12154] showed a Ki of 1.18 µM. Compound `O=C(Nc1ccc(F)c(F)c1)[C@@H]1CC=C[C@@H]2CCN(CC3CC3)C(=O)[C@@H]21` (racemic) [compound 12155] has a Ki of 2.25 µM. `O=C(Nc1ccc(Cl)c(C(F)(F)F)c1)[C@@H]1CC=C[C@@H]2CCN(CC3CC3)C(=O)[C@@H]21` (racemic) [compound 12156] was tested, and the Ki was 0.788 µM. `O=C(Nc1nccs1)[C@@H]1CC=C[C@@H]2CCN(CC3CC3)C(=O)[C@@H]21` (racemic) [compound 12157] gave a Ki of 3.5 µM. With `CN(C(=O)[C@@H]1CC=C[C@@H]2CCN(C3CCCCC3)C(=O)[C@@H]21)c1ccccc1` (racemic) [compound 12160] the Ki was 2.98 µM. Compound `COc1ccc(-c2cccc(CN3CC[C@H]4C=CC[C@@H](C(=O)Nc5ccc(Cl)c(C(F)(F)F)c5)[C@H]4C3=O)c2)cc1` (racemic) [compound 12161] has a Ki of 2.13 µM. With `O=C(Nc1ccc(Br)c(C(F)(F)F)c1)[C@@H]1CC=C[C@@H]2CCN(CC3CC3)C(=O)[C@@H]21` (racemic) [compound 12172] the Ki was 1.28 µM. `O=C(Nc1ccc(Br)c(C(F)(F)F)c1)[C@@H]1CC=C[C@@H]2CCN(CC3CCCCC3)C(=O)[C@@H]21` (racemic) [compound 12173] was tested, and the Ki was 0.508 µM. For `O=C(Nc1ccc(F)c(C(F)(F)F)c1)[C@@H]1CC=C[C@@H]2CCN(Cc3ccccc3)C(=O)[C@@H]21` (racemic) [compound 13474], the Ki was 0.192 µM. `Cc1ccc(NC(=O)[C@@H]2CC=C[C@@H]3CCN(Cc4ccccc4)C(=O)[C@@H]32)c(F)c1F` (racemic) [compound 13476] showed a Ki of 0.559 µM. `Cc1ccc(NC(=O)[C@@H]2CC=C[C@@H]3CCN(Cc4ccccc4F)C(=O)[C@@H]32)cc1C(F)(F)F` (racemic) [compound 13479] gave a Ki of 0.0095 µM. `O=C(Nc1ccccc1)[C@@H]1CC=C[C@@H]2CCCN(C3CCCCC3)C(=O)[C@@H]21` (racemic) [compound 14423] was tested, and the Ki was 8.84 µM. `O=C(NC1CCCCC1)[C@@H]1CC=C[C@@H]2CCCN(C3CCCCC3)C(=O)[C@@H]21` (racemic) [compound 14424] gave a Ki of 1.69 µM. With `O=C(Nc1cccc(Cl)c1)[C@@H]1CC=C[C@@H]2CCCN(C3CCCCC3)C(=O)[C@@H]21` (racemic) [compound 14425] the Ki was 6.04 µM. Compound `O=C(Nc1nccs1)[C@@H]1CC=C[C@@H]2CCCN(C3CCCCC3)C(=O)[C@@H]21` (racemic) [compound 14428] has a Ki of 2.99 µM. `O=C(Nc1ccccc1)[C@@H]1CC=C[C@@H]2CN(Cc3ccccc3)C(=O)[C@@H]21` (racemic) [compound 14429] showed a Ki of 7.02 µM. Work on `O=C(Nc1ccc(Br)c(C(F)(F)F)c1)[C@@H]1CC=C[C@@H]2CN(Cc3ccccc3)C(=O)[C@@H]21` (racemic) [compound 14432] yielded a Ki of 2.77 µM. `O=C(Nc1ccc(Cl)c(C(F)(F)F)c1)[C@@H]1CC=C[C@@H]2CN(Cc3ccccc3)C(=O)[C@@H]21` (racemic) [compound 14433] was tested, and the Ki was 1.94 µM. With `O=C(Nc1ccccc1)[C@@H]1CC=C[C@@H]2CN(C3CCCCC3)C(=O)[C@@H]21` (racemic) [compound 14435] the Ki was 1.61 µM. Compound `O=C(NC1CCCCC1)[C@@H]1CC=C[C@@H]2CN(C3CCCCC3)C(=O)[C@@H]21` (racemic) [compound 14436] has a Ki of 2.15 µM. For `O=C(Nc1cccc(Cl)c1)[C@@H]1CC=C[C@@H]2CN(C3CCCCC3)C(=O)[C@@H]21` (racemic) [compound 14437], the Ki was 0.962 µM. With `O=C(Nc1ccc(Br)c(C(F)(F)F)c1)[C@@H]1CC=C[C@@H]2CN(C3CCCCC3)C(=O)[C@@H]21` (racemic) [compound 14438] the Ki was 1.92 µM. `O=C(Nc1ccc(Cl)c(C(F)(F)F)c1)[C@@H]1CC=C[C@@H]2CN(C3CCCCC3)C(=O)[C@@H]21` (racemic) [compound 14439] was tested, and the Ki was 5.35 µM.

The compounds below were run against KOR (Homo sapiens, UniProt P41145) (assay: Opioid secondary binding, KOR (Tables 4, 5, 8, 9)). Settings: Opioid secondary binding activity for Formula 10 analogs; read-out: KOR, Ki.
Chain of KOR (P41145 whole entry): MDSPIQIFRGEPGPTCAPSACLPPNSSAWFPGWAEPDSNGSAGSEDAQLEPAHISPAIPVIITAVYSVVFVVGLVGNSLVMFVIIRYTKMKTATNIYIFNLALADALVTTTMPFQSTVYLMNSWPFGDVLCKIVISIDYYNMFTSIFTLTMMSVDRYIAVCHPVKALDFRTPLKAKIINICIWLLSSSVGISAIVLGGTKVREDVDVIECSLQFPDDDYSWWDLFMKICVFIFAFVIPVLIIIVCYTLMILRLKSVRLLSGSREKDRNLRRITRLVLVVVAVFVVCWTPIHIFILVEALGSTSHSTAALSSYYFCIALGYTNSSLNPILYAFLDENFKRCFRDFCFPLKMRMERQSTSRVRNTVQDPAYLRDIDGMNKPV
For `CC(c1ccccc1)N1CCC2C=CCC(C(=O)NC3CCCCC3)C2C1=O` (mixture of isomers) [compound 12163], the Ki was 5.91 µM.
